Data on two compounds can be found in patent EP0072027A1, “Antiviral compounds” (THE WELLCOME FOUNDATION LIMITED, priority 1981, dated 1983).

The test system of data set [1] is herpes simplex virus type 1. Nature of the data set: Comparative in vivo activity against herpetic encephalitis in mice (Example 18). The settings on record: for Mean reciprocal survival time: 100 mg/kg/dose twice daily for 4½ days, 300 LD50. On the set-up: species or system CD.1 mice. How it is done:
CD.1 mice weighing 16 - 20 gm were obtained from Charles River, Manston, Kent, U.K. The animals were housed in groups of approximately 10 and were given food and water ad lib.
The compounds namely acyclovir, 134U, 759U and 457U, were prepared as suspensions or solutions in sterile water at a concentration of 20 mg/ml prior to each experiment, and were stored at 4°C during the dosing period.
The ICI strain of herpes simplex virus type 1 was used for all experiments at a concentration of 300 LD50 (10^5 pfu)/ml). Dilutions from virus stocks ([…]) were prepared in PBS 'A'.
The test procedure is analoguous to that described in Example 13.
Three experiments were performed, in which three routes of compound administration were examined: i) subcutaneous, ii) oral and iii) intraperitoneal. […]

Data set [2] concerns EHV-1 Pneumabort vaccine strain. The data set is described as follows: Comparative in vivo activity against equine rhinopneumonitis virus in hamsters, medicated drinking water (Example 15). On the set-up: species or system Syrian hamsters. As to conditions: for Cumulative mortality (out of 15) on day: water conc. 0.075 mg/ml, average intake 6.6-6.8 mg/kg/day. How it is done:
50 male WO/CR Syrian hamsters were caged randomly in 10 groups of 5, with water and food (seed mix) ad lib. Hamsters were weighed on Days -3, 0, 4, and/or- at death/sacrifice. Water consumption was recorded over Days -3 to 0 to 4.
EHV-1 Pneumabort vaccine strain stored as a 10^-1 dilution, was further diluted 10^-1 in PBS for infection. On Day 0, hamsters in Groups 1-9 received 0.2 ml virus inoculum s/c in the left flank equivalent to about 2 x 10^5 PFU (plaque-forming units).
457U and 759U were dissolved in drinking water at 0.075 mg/ml. Assuming an average daily intake of […], this would result in a daily dose of around 10 mg/kg. Medicated water was provided from approximately 5 hours pre-infection for 96 hours, as below
The drug intake was calculated from the weight of the animals and the water consumption recorded over the period of the experiment.

The next data set is described as follows: Solubility in water. It counts as physicochemical. An excerpt:
As mentioned above, the compounds of formula (I) have the important advantage of having a greater solubility in water than acyclovir. Thus, the compounds of formula (I) wherein X is an oxygen atom and R is a hydroxy group or amino group have solubilities of 0.4 -.0.5% and 2 - 3% w/w respectively compared with a figure of 0.14% w/w for acyclovir.

The test system of data set [3] is Equine rhinopneumonitis virus (EHV-1). Nature of the data set: In vivo activity against equine rhinopneumonitis virus in hamsters (Example 14), intraperitoneal and oral. As to conditions: Equid alphaherpesvirus 1, ip, 120 h; intraperitoneally for 5 days commencing 5 hours pre-infection; read-out: dose rate generally necessary to prevent any virus-induced mortality. On the set-up: species or system Syrian weanling hamsters.

Each structure is given as a SMILES string. Values after ≈ are worked out from the molar mass of the structure shown.

In the case of `Nc1nc2c(ncn2COC(CO)CO)c(=O)[nH]1` [Example 759U, 9-[(2-hydroxy-1-hydroxymethylethoxy)methyl]guanine], the “Mean reciprocal survival time” value in data set [1] (Oral) is 0.146; in data set [1] (i.p.) it was 0.093; in data set [1] (s.c.), 0.084. The “antiviral effect compared with acyclovir and 134U” value in data set [1] (any of the three routes, difference highly significant) is “greatest antiviral effect”. For the same compound, the “deaths from virus-induced hepatitis” value in data set [2] (in 15 treated hamsters, 14 deaths in 15 untreated controls) is “no deaths”. In addition, the “prevention of EHV-1 induced mortality” value in data set [2] (orally in drinking water, approximately 7 mg/kg/day) is “completely prevented”. Besides, the “Cumulative mortality (out of 15) on day” value in data set [2] (day 2), in data set [2] (day 3) and in data set [2] (day 4+) was 0 each time.
As a reminder, the solubility is how much of the substance goes into solution per volume. Low readings indicate a poorly soluble substance, high ones a readily soluble substance. `Nc1nc2c(ncn2COCCO)c(=O)[nH]1` [acyclovir, 9-(2-hydroxyethoxymethyl) guanine, reference compound]: the “Mean reciprocal survival time” value stood at 0.237 in data set [1] (Oral), 0.236 in data set [1] (i.p.) and 0.174 in data set [1] (s.c.). In “Solubility in water”, this compound gave a solubility of 1400 µg/mL (≈ 6.22 mM). In addition, the minimal effective dose in data set [3] is 100 mg/kg/day.
